Tests used:
[1] = system: human colonic microbiota; assay: I-screen fermentation, SCFA analysis with omega-3 amino acid salts, FFA and amino acids (Examples 5 and 6); assay type: cell-based; conditions: salts 1.4 mg/ml; for Iso-butyrate / Iso-valerate: 24 h in SIEM, FFA 0.95 mg/ml, amino acids 0.5 mg/ml, means of triplicates; for Iso-butyrate: control 1.21; for Iso-valerate: control 2.74; for Propionate/acetate ratio / Propionate / Acetate: FFA 0.96 mg/ml, L-lysine 0.49, L-arginine 0.52, L-ornithine 0.5 mg/ml; for Propionate/acetate ratio: control 0.48; for Propionate: control 7.37; for Acetate: control 15.21
[2] = system: human colonic microbiota; assay: I-screen intestinal screening model, microbiota composition by V4 16S rRNA gene sequencing (Example 1); assay type: cell-based; conditions: omega-3-lys, EE, fish oil 1.4 mg/ml, inulin 4 mg/ml, means of triplicates
From the text: To determine the effect of omega-3 compounds on adult colonic microbiota, an intestinal screening model was used (I-screen, TNO, the Netherlands), which corresponds to colonic environment. A translation of such in vitro experiment towards an application in a living organism (animal or human) requires the use of a colon-specific delivery form to circumvent absorption of fatty acids in upper parts of the gastrointestinal tract. The use of compositions comprising omega-3 compounds in formulations enabling a colon-specific delivery is part of the present invention. […]
The microbiota composition was analyzed by 16S rRNA gene amplicon sequencing of the V4 hypervariable region. […]
The amount of bacterial DNA in the i-screen DNA samples was determined by quantitative polymerase chain reaction (qPCR) using primers specific for the bacterial 16S rRNA gene: Forward primer: CGAAAGCGTGGGGAGCAAA; Reverse primer: GTTCGTACTCCCCAGGCGG; Probe: 6FAM-[…]-MGB.
Subsequently, PCR amplicons of the V4 hypervariable region of the 16S rRNA gene were generated for the individual samples by amplification of 500 pg of DNA as described by Kozich et al. (2013), using F515/R806 primers (Caporaso et al. 2011). […] The amount of amplified DNA per sample was quantified using the dsDNA 910 Reagent Kit on the Fragment Analyzer (Advanced Analytical). […]

Molecule | Iso-butyrate [1] [mM] | Iso-valerate [1] [mM] | Propionate/acetate ratio [1] | Propionate [1] [mM] | Acetate [1] [mM] | Effect on colonic microbiota after 24 h incubation (variance explained versus control) [2] [%]
NCCCC[C@H](N)C(=O)O [Lys, L-lysine] | 1.47 | 3.57 | 0.40 | 9.49 | 24.03 | –
N=C(N)NCCC[C@H](N)C(=O)O [Arg, L-arginine] | 1.21 | 3.71 | 0.40 | 9.39 | 23.50 | –
NCCC[C@H](N)C(=O)O [Orn, L-ornithine] | 1.37 | 3.31 | 0.36 | 9.11 | 25.36 | –
inulin | – | – | – | – | – | 40.2
